In patent US20260109694A1, “HETEROCYCLIC COMPOUNDS AND USES THEREOF” (Kumquat Biosciences Inc., priority 2023, published 2026):

How the values were obtained:
PTP1B = biological target: T1, PTP1B (Homo sapiens, UniProt P18031); assay: Phosphatase activity assay (DiFMUP substrate); assay type: biochemical; conditions: value bin printed in column head
T1 sequence (P18031 1-435): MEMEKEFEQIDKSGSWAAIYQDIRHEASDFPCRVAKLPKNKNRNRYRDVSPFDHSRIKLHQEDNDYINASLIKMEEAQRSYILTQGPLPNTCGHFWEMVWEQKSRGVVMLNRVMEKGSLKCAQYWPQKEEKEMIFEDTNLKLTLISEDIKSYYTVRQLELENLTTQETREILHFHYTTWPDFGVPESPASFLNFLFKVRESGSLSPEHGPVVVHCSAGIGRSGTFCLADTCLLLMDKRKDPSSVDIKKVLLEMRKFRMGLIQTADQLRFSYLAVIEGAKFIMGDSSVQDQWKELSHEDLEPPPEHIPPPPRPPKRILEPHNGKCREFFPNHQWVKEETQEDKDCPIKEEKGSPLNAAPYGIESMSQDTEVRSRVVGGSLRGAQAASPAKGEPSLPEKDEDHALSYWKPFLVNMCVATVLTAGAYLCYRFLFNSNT
How it was run: (§1)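 Each enzyme (PTPN2 at 0.025 ng/ul) was premixed ~2 min with a 10-point inhibitor series in 50 mM HEPES pH 7.5, 150 mM NaCl, 0.5 mM EDTA, 1 mM DTT, 0.001% Tween-20 at room temperature. DiFMUP was added at each enzyme's Km (~45 μM for PTPN2). DiFMU fluorescence was followed 15–30 min, and IC50 came from 4-parameter fits of initial rates.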

PTPN2 = biological target: T2, PTPN2 (Homo sapiens, UniProt P17706); assay: Phosphatase activity assay (DiFMUP substrate); assay type: biochemical; conditions: value bin printed in column head
T2 sequence (P17706 1-415): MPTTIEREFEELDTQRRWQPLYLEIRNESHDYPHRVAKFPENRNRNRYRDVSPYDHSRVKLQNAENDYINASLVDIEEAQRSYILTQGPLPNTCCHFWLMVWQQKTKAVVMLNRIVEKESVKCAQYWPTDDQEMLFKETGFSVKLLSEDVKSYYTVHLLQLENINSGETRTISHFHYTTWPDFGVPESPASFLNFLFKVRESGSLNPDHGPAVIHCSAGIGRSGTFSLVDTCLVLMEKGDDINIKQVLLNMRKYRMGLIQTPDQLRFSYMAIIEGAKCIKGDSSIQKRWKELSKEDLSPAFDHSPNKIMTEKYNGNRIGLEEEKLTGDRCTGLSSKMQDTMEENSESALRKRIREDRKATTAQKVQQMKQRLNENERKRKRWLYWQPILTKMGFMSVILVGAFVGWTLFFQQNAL
How it was run: as §1

Row | IC50 (PTP1B) | IC50 (PTPN2) | Structure (SMILES)
1 | ≤ 1000 nM | ≤ 1000 nM | CC(C)[C@H](N)C(=O)NCC(=O)N1CC(c2ccc(O)c(N3CC(=O)NS3(=O)=O)c2F)=C[C@H]1CCC1CCC1 [Compound 144, (S)-2-amino-N-(2-((R)-2-(2-cyclobutylethyl)-4-(3-(1,1-dioxido-4-oxo-1,2,5-thiadiazolidin-2-yl)-2-fluoro-4-hydroxyphenyl)-2,5-dihydro-1H-pyrrol-1-yl)-2-oxoethyl)-3-methylbutanamide]
2 | ≤ 1000 nM | ≤ 1000 nM | CC(C)C(=O)OC(OC(=O)N1CC(c2ccc(O)c(N3CC(=O)NS3(=O)=O)c2F)=C[C@H]1CCC1CCC1)C(C)C (stereo partly drawn) [Compound 150, 1-(isobutyryloxy)-2-methylpropyl (2R)-2-(2-cyclobutylethyl)-4-(3-(1,1-dioxido-4-oxo-1,2,5-thiadiazolidin-2-yl)-2-fluoro-4-hydroxyphenyl)-2,5-dihydro-1H-pyrrole-1-carboxylate]
3 | ≤ 1000 nM | ≤ 1000 nM | CC(C)C(=O)O[C@@H](C)OC(=O)N1CC(c2ccc(O)c(N3CC(=O)NS3(=O)=O)c2F)=C[C@H]1CCC1CC1 [Compound 143, (R)-1-(isobutyryloxy)ethyl (R)-2-(2-cyclopropylethyl)-4-(3-(1,1-dioxido-4-oxo-1,2,5-thiadiazolidin-2-yl)-2-fluoro-4-hydroxyphenyl)-2,5-dihydro-1H-pyrrole-1-carboxylate]
4 | ≤ 1000 nM | ≤ 1000 nM | CC(C)C(=O)O[C@H](C)OC(=O)N1CC(c2ccc(O)c(N3CC(=O)NS3(=O)=O)c2F)=C[C@@H]1CCC1CC1 [Compound 155, (S)-1-(isobutyryloxy)ethyl (S)-2-(2-cyclopropylethyl)-4-(3-(1,1-dioxido-4-oxo-1,2,5-thiadiazolidin-2-yl)-2-fluoro-4-hydroxyphenyl)-2,5-dihydro-1H-pyrrole-1-carboxylate]
5 | ≤ 1000 nM | ≤ 1000 nM | CC(OC(=O)C(C)C)OC(=O)N1CC(c2ccc(O)c(N3CC(=O)NS3(=O)=O)c2F)=C[C@H]1CCC1CCC1 (stereo partly drawn) [Compound 156, 1-(isobutyryloxy)ethyl (2R)-2-(2-cyclobutylethyl)-4-(3-(1,1-dioxido-4-oxo-1,2,5-thiadiazolidin-2-yl)-2-fluoro-4-hydroxyphenyl)-2,5-dihydro-1H-pyrrole-1-carboxylate]

More lines, now with the values behind:

Row | Structure (SMILES) | IC50 (PTP1B) | IC50 (PTPN2)
6 | O=C1CN(c2c(O)cc(C3=CC(CCC4CC4)NC3)cc2F)S(=O)(=O)N1 (centres unmarked) [Compound 105, 5-(4-(5-(2-cyclopropylethyl)-2,5-dihydro-1H-pyrrol-3-yl)-2-fluoro-6-hydroxyphenyl)-1,2,5-thiadiazolidin-3-one 1,1-dioxide] | ≤ 1000 nM | ≤ 1000 nM
7 | CC(C)(C)CC[C@@H]1C=C(c2ccc(O)c(N3CC(=O)NS3(=O)=O)c2F)CN1 [Compound 110, (R)-5-(3-(5-(3,3-dimethylbutyl)-2,5-dihydro-1H-pyrrol-3-yl)-2-fluoro-6-hydroxyphenyl)-1,2,5-thiadiazolidin-3-one 1,1-dioxide] | ≤ 1000 nM | ≤ 1000 nM
8 | O=C1CN(c2c(O)ccc(C3=CC(CCC4CCCC4)NC3)c2F)S(=O)(=O)N1 (centres unmarked) [Compound 101, 5-(3-(5-(2-cyclopentylethyl)-2,5-dihydro-1H-pyrrol-3-yl)-2-fluoro-6-hydroxyphenyl)-1,2,5-thiadiazolidin-3-one 1,1-dioxide] | ≤ 1000 nM | ≤ 1000 nM
9 | O=C1CN(c2c(O)ccc(C3=CC(CCCC4CC4)NC3)c2F)S(=O)(=O)N1 (centres unmarked) [Compound 123, 5-(3-(5-(3-cyclopropylpropyl)-2,5-dihydro-1H-pyrrol-3-yl)-2-fluoro-6-hydroxyphenyl)-1,2,5-thiadiazolidin-3-one 1,1-dioxide] | ≤ 1000 nM | ≤ 1000 nM
10 | O=C1CN(c2c(O)ccc(OC3CCNC3)c2F)S(=O)(=O)N1 (centres unmarked) [Compound 142, 5-(2-fluoro-6-hydroxy-3-(pyrrolidin-3-yloxy)phenyl)-1,2,5-thiadiazolidin-3-one 1,1-dioxide] | ≤ 1000 nM | > 1000 nM
